Each structure is given as a SMILES string.

The test system of one data set is WT or mdx mice. Briefly: Forelimb grip strength. The data set is classed as in vivo, mouse. The conditions noted are these: single doses up to 10 mg/kg, 4 hours after oral administration. The procedure: Prior to in vivo assessments, mice were dosed PO after a 2-hour fast with 10 mL/Kg suspensions. Grip strength and rotarod assessments were performed masked, 4 hours after dosing using published protocols ([66], [67]). Grip strength was performed with a Columbus Instruments Rodent Force Meter. Forepaw strength represented the average of 5 trials with 30-second rest periods, normalized by BW. Rotarod endurance was performed with a Columbus Instruments RotaMax. Mice were placed on the device drum at 1 rpm, which accelerated 1 rpm every 3 seconds to 12 rpm and a maximal time of 500 seconds. This was repeated 3 times with a 3-minute rest and total time reported. Voluntary wheel running performance was assessed with a customized system. Timestamped RPMs were measured 24 hours per day by infrared sensors, and a custom software calculated distance. Whole-body EBD was visualized after intravenous administration ([35]). EBD in PBS at 10 mg/mL was sterile filtered, and 50 μL/10 g BW was injected via tail vein. After 24 hours, animals were sacrificed, skin was removed and fixed in 4% formalin for 24 hours, and photographed using a Leica/Lumix camera.

Another data set concerns the target T1, CDK2 (Homo sapiens, UniProt P24941).
T1 construct: purchased Eurofins DiscoverX (KINOMEscan; SAFETYscan E/IC50 ELECT)
Briefly: KINOMEscan scanEDGE. To be noted: 20 uM. The data set is classed as binding.

In another data set the target is T2, LCK (Homo sapiens, UniProt P06239).
T2 construct: purchased Eurofins DiscoverX (KINOMEscan; SAFETYscan E/IC50 ELECT)
T2 sequence (P06239 whole entry): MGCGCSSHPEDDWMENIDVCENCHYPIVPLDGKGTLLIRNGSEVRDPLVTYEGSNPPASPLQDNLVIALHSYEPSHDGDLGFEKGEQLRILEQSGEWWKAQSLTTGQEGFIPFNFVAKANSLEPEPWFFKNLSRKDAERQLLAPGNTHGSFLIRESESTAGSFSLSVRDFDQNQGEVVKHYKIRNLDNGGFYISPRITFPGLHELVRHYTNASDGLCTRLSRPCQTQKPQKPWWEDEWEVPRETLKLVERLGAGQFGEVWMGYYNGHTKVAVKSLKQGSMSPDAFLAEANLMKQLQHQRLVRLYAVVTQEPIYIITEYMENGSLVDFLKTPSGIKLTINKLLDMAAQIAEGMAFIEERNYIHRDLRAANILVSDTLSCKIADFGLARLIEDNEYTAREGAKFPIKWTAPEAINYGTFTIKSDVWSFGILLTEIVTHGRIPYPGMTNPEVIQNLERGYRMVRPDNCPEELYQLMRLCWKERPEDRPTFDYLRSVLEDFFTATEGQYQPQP
Briefly: SAFETYscan Binding. To be noted: read-out: Max Response (%) (Antagonist). Further details: dose or concentration left out as unconfirmed. On the procedure:
(§1) The specificity of EDG-5506 for fast skeletal myosin over other, unrelated proteins was confirmed using two off-target binding and activity screens. […] A second off-target panel (SAFETYscan E/IC50 ELECT, Eurofins DiscoverX) tested in vitro enzyme activity against 78 proteins, including GPCR, ion channel, kinases, nuclear hormone receptors, and transporters. In all assays, the IC50 of EDG-5506 was more than 10 μM (Supplemental Data File 1).

In another data set the target is T3, VEGFR2 (Homo sapiens, UniProt P35968).
T3 construct: purchased Eurofins DiscoverX (KINOMEscan; SAFETYscan E/IC50 ELECT)
T3 sequence (P35968 20-1356): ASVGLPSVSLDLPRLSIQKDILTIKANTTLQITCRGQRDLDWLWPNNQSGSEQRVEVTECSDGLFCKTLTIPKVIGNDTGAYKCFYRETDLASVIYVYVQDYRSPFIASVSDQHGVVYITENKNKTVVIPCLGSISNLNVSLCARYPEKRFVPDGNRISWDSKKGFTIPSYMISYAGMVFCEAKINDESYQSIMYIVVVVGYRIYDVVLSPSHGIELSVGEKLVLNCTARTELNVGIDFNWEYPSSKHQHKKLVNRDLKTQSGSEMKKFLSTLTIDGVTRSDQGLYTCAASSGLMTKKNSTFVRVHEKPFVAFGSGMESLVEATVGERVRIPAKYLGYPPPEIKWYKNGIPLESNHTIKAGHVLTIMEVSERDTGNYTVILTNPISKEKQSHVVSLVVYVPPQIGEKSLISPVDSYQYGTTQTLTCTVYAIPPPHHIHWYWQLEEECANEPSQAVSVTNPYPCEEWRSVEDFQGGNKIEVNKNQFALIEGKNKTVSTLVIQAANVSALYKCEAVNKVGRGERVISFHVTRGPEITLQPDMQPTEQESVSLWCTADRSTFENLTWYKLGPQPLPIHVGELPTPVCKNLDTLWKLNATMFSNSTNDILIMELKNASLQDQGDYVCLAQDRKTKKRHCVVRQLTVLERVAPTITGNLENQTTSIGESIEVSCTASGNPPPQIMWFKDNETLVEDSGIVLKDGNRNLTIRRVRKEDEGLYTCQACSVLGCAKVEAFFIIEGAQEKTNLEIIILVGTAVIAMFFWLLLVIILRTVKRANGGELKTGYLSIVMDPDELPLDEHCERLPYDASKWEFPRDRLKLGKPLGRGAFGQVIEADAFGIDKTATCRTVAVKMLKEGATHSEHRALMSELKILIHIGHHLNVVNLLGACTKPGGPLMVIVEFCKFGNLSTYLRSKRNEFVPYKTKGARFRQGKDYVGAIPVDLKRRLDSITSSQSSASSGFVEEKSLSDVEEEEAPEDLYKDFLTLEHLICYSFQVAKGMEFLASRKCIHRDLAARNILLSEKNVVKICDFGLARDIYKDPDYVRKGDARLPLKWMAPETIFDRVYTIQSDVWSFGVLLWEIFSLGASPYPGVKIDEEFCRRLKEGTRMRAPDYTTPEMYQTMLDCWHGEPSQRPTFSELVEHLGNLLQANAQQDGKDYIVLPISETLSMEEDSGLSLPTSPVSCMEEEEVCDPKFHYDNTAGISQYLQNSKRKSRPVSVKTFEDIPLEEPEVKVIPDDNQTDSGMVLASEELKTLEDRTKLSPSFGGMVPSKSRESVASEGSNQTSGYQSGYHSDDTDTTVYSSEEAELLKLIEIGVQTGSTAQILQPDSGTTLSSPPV
Description: SAFETYscan Binding. Set-up: dose or concentration left out as unconfirmed. The conditions noted are these: read-out: Max Response (%) (Antagonist). On the procedure:
as §1

In another data set the target is T4, ROCK1 (Homo sapiens, UniProt Q13464).
T4 construct: purchased Eurofins DiscoverX (KINOMEscan; SAFETYscan E/IC50 ELECT)
Briefly: SAFETYscan Binding. Further details: dose or concentration left out as unconfirmed. To be noted: read-out: Max Response (%) (Antagonist). On the procedure: as §1

The target in the next data set is T5, INSR (Homo sapiens, UniProt P06213).
T5 construct: purchased Eurofins DiscoverX (KINOMEscan; SAFETYscan E/IC50 ELECT)
Briefly: SAFETYscan Binding. Set-up: dose or concentration left out as unconfirmed. To be noted: read-out: Max Response (%) (Antagonist). On the procedure:
as §1

In another data set the test system is healthy mice, TA muscle. Description: Cardiotoxin sterile muscle injury repair. The data set is classed as in vivo, mouse. To be noted: day 8 post injury. The procedure: For sterile muscle injury, mice were anesthetized with isoflurane and 50 μL cardiotoxin (12 × 10^–6 M, 217503, Millipore) injected in the TA muscle. Muscles 8 days after injury were snap frozen in nitrogen-chilled isopentane. 8 μm cryosections were cut and stained with H&E. For each analysis, more than 10 slides (per condition/group) containing 6 muscle sections/sample were used, and myofibers in the injured area were counted and measured with a Mirax digital scanner and HALO software ([68]). For adult mouse studies, muscles were fixed in 10% formalin and embedded in paraffin for sectioning. Laminin staining (RB-082, Thermo Fisher Scientific) was used to outline fibers, and picrosirius red was used for collagen accumulation. Image analysis was performed using ImarisX64 software (Bitplane AG), and fiber sizing was calculated using minimal Feret’s diameter ([69]). For after weaning juvenile mouse studies, cryosections from soleus muscles were mounted in ProLong antifade mountant with DAPI (Thermo Fisher Scientific). Fiber type, size, and central nucleation were quantified with analysis via SMASH ([70]) and ImageJ (NIH). Antibodies used were mouse anti-MHC2A (1:50, SC-71, Developmental Studies Hybridoma Bank) and mouse anti-eMHC (1:10, BF-45, Developmental Studies Hybridoma Bank).

Data set [1] addresses T6, slow bovine masseter skeletal myofibrils (Bos taurus, UniProt Q9BE39).
T6 construct: from tissue; host or cells: bovine masseter muscle
Briefly: Myofibril ATPase, bovine masseter. The data set is classed as biochemical. To be noted: 100% type I, at pCa50.

The next data set deals with T7, AXL (Homo sapiens, UniProt P30530).
T7 construct: purchased Eurofins DiscoverX (KINOMEscan; SAFETYscan E/IC50 ELECT)
T7 sequence (P30530 26-894): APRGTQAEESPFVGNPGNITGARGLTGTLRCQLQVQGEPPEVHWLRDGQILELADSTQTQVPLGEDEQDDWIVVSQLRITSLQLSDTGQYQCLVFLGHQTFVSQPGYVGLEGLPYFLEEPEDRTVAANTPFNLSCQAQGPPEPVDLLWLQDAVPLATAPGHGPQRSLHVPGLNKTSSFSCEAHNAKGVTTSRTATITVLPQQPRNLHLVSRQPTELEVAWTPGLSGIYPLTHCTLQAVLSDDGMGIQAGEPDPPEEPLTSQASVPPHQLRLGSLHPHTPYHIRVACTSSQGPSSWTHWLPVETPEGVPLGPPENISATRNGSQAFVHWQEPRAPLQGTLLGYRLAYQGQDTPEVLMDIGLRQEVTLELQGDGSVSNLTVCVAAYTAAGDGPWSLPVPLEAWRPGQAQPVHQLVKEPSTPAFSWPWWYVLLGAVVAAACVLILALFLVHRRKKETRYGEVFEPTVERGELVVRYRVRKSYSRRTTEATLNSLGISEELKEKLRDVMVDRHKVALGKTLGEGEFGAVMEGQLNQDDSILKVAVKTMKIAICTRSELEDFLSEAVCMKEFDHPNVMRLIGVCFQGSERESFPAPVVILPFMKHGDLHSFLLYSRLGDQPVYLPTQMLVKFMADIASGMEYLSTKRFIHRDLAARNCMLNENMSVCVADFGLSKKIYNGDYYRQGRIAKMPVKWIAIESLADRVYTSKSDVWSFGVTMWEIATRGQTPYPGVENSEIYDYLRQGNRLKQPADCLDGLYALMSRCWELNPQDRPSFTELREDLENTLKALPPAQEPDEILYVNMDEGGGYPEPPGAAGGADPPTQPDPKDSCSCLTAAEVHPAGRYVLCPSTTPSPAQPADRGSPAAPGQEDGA
Briefly: KINOMEscan scanEDGE. The data set is classed as binding. To be noted: 20 uM.

The target in the next data set is T8, BRAF(V600E) (Homo sapiens, UniProt P15056, V600E).
T8 construct: purchased Eurofins DiscoverX (KINOMEscan; SAFETYscan E/IC50 ELECT)
Description: KINOMEscan scanEDGE. The data set is classed as binding. To be noted: 20 uM.

Data set [2] has as its system mouse extensor digitorum longus (EDL) muscle. Briefly: Ex vivo isometric force, mouse EDL. To be noted: WT mouse EDL, 10 μM. On the procedure: Isometric force was measured ex vivo in mouse EDL and soleus muscle. EDL muscle eccentric injury was based on published protocols ([30]), with degree of lengthening and stimulation modified to yield a uniform drop in mdx isometric and peak force over 10 contractions. After isolation, muscle was mounted via 5-0 suture to a combination servomotor/force transducer (300C-LR, Aurora) between 2 electrodes connected to a stimulator (701C, Aurora) in Ringers solution at 27°C with continuously infused CO2/O2 gas mixture. Experiments were recorded with custom MATLAB software via a National Instruments PCIe-6321 board and 2090A BNC connector. Muscles were preincubated for 60 minutes with DMSO (final 0.1%)/compound before 10 eccentric contractions, 1 minute apart, with 100 milliseconds of isometric stimulation at 100 Hz and active lengthening of 0.1 L0 at a rate of 2 L0/s. After lengthening, muscles were held at 1.1 L0 with stimulation for 100 milliseconds (Supplemental Figure 2A).

T6 sequence (Q9BE39 whole entry): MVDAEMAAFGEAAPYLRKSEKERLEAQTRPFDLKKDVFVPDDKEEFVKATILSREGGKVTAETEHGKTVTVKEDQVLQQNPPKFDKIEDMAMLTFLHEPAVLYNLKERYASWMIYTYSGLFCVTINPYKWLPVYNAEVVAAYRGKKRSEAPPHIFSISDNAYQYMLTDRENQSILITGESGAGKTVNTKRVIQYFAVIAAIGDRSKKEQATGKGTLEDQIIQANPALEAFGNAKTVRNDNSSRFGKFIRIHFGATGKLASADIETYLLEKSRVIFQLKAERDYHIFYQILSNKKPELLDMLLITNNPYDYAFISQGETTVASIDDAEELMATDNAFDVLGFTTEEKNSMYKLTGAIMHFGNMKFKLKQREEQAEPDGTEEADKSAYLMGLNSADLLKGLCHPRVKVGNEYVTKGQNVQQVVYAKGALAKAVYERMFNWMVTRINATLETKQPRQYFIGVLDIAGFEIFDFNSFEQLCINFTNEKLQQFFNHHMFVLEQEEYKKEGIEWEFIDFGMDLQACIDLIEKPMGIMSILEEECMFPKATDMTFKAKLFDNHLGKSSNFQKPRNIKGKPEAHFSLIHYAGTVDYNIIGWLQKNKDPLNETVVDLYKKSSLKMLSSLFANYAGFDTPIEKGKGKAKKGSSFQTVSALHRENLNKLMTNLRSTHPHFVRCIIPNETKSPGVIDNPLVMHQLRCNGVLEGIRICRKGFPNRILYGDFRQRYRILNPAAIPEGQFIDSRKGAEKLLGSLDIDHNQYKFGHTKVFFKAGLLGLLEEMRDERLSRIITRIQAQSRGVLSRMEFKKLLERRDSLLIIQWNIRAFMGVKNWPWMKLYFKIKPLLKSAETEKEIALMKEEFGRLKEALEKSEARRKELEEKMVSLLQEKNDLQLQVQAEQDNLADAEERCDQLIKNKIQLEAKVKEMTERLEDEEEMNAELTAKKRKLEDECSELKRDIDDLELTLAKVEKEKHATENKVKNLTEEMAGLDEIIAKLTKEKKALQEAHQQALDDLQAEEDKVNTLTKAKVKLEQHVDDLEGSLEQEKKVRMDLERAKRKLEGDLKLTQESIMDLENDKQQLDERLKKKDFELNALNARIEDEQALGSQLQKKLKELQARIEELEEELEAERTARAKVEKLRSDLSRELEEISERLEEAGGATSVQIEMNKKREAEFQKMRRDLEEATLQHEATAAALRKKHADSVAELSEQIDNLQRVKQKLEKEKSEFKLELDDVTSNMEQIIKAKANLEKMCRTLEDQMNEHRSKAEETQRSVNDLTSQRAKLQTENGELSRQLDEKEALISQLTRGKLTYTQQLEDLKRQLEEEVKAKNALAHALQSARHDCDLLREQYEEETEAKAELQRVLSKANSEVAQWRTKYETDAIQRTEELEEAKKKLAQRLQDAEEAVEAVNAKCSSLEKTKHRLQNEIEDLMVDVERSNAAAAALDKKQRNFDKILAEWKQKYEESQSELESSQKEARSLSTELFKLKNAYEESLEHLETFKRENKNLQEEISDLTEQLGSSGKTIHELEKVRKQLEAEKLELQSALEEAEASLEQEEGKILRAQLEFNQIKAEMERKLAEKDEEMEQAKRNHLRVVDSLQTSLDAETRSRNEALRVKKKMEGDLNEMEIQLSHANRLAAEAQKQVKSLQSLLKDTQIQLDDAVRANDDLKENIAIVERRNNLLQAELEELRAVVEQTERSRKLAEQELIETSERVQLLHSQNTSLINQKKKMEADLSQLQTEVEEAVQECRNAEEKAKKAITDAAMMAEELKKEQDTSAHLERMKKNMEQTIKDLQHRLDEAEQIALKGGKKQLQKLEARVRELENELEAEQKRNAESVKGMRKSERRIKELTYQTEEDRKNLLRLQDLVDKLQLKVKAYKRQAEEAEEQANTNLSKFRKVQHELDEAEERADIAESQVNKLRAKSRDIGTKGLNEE
T6 sequence (P85100 whole entry partner): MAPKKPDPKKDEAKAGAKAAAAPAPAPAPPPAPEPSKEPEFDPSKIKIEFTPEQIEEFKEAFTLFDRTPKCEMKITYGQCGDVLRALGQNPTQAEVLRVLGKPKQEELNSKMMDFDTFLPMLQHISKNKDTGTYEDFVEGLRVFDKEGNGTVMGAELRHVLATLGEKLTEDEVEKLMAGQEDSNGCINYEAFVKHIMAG
T6 sequence (Q3SZE5 whole entry partner): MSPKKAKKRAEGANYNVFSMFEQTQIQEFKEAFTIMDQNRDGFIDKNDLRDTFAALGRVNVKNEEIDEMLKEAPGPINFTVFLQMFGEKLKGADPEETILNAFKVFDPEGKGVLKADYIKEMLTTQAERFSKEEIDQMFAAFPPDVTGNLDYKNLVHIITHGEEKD

As usually defined, the IC50 is the concentration that inhibits the measured activity by half. Take `O=c1ccc(-c2cnc(OCC(F)(F)F)nc2)nn1Cc1cncc(F)c1` [EDG-5506]: the grip strength entry with WT or mdx mice was “no effect”. Also, the “binding, % of control” value is 100 % of control at CDK2, 92 % of control at AXL and 93 % of control at BRAF(V600E). The Emax at LCK is 0%; on VEGFR2, 18.1%; on ROCK1, 24.6%; at INSR, 26.9%. The “muscle repair after cardiotoxin injury” value with healthy mice, TA muscle is recorded as “did not interfere with muscle repair”. Also, the concentration for half-maximal inhibition (IC50) in data set [1] was above 100 µM. Besides, in data set [2], the “ex vivo force inhibition” value is recorded as “completely inhibiting force”.
